We go through three compounds from patent US20060063187A1, “Modulation of XBP-1 activity for treatment of metabolic disorders” (priority 2004, published 2006).

The subject of one experiment is Fao liver cells. Nature of the experiment: ER stress and insulin receptor signaling in Fao liver cells (immunoprecipitation / immunoblotting). The format is cell-based, rat. To be noted: for serine (Ser307) phosphorylation of IRS-1: Fao cells treated with ER stress inducer (tunicamycin 5 μg/ml 3 h; thapsigargin 300 nM). How it is done:
(§1) FIG. 2 depicts that the induction of ER stress impairs insulin action through JNK mediated phosphorylation of IRS-1. (A) ER stress was induced in Fao liver cells by a 3-hour treatment with 5 μg/ml tunicamycin (Tun). Cells were subsequently stimulated with insulin (Ins). IRS-1 tyrosine and serine (Ser307) phosphorylation, Akt phosphorylation (Ser473), insulin receptor (IR) tyrosine phosphorylation, and their total protein levels were examined using either immunoprecipitation (IP) followed by immunoblotting (IB) or direct immunoblotting. (B) Quantitation of IRS-1 (tyrosine and Ser307), Akt (Ser473), and IR (tyrosine) phosphorylation under the experimental conditions described in (A) with normalization to protein levels for each molecule. (C) Inhibition of ER stress-induced (300 nM thapsigargin for 4 hours) Ser307 phosphorylation of IRS-1 by JNK-1 inhibitor, SP600125 (JNKi, 25 μM). (D) Quantitation of IRS-1 Ser307 phosphorylation under conditions described in (C). (E) Reversal of ER stress-induced inhibition of insulin-stimulated tyrosine phosphorylation (pY) of IRS-1 by a JNK inhibitor. (F) Quantitation of insulin-induced IRS-1 tyrosine phosphorylation levels described in (E). (G) JNK activity, Ser307 phosphorylation of IRS-1, and total IRS-1 levels at indicated times following tunicamycin treatment (Tun, 10 μg/ml for I hour) in IRE-1α^+/+ and IRE-1α^−/− fibroblasts. (H) Insulin-stimulated IRS-1 tyrosine phosphorylation and total IRS-1 levels following tunicamycin treatment (Tun, 10 μg/ml for 1 hour) in IRE-1α^+/+ and IRE-1α^−/− fibroblasts. […] All graphs show mean ±SEM from at least 2 independent experiments and statistical significance from the controls is indicated by * with p<0.005.
FIG. 8 depicts inhibition of insulin receptor signaling by thapsigargin-induced ER stress and the role of Ca^+2 levels in IRS-1 serine phosphorylation. (A) ER stress was induced in Fao cells by 1 hour treatment with 300 nM thapsigargin (Thap), and cells were subsequently stimulated with insulin (Ins). IRS-1 tyrosine phosphorylation (pY) and serine phosphorylation (pSer307), insulin receptor (IR) tyrosine phosphorylation, and total protein levels were examined using either immunoprecipitation (UP) followed by immunoblotting (IB) or direct immunobloting. (B) Fao cells were treated with sulindac sulfide (SS: 0, 7.5, 30, and 60 μM) for 45 minutes with or without an additional hour of exposure to 300 nM thapsigargin (Thap). IRS-1 serine phosphorylation and total IRS-1 protein levels were examined as described above.
Cells: FaO cells were cultured with RPMI 1640 (Gibco) containing 10% fetal bovine serum (FBS). At 70-80% confluency, cells were serum depleted for 12 hours before starting the experiments. Reagents including tunicamycin, thapsigargin, and JNK inhibitors were gently added to the culture dishes in the incubator to prevent any environmental stress. JNK inhibitors were added 1 hour before tunicamycine/thapsigargin treatment. The XBP-1^−/− MEF cells, IRE-1α^−/− MEF cells (provided by Dr. David Ron (New York University School of Medicine) and their wild type (WT) controls were cultured in Dulbecco's Modified Eagle Medium (DMEM) (Gibco) containing 10% FBS. Experiments in MEF cells were carried out similar to those in FaO cells except after 6 hours of serum depletion.
Protein Extracts From Cells: At the end of each treatment, cells were immediately frozen in liquid nitrogen and kept at −80° C. Protein extracts were prepared with a lysis buffer, containing 25 mM Tris-HCl (pH7.4), 2 mM Na3VO4, 10 mM NaF, 10 mM Na4P2O7, 1 mM EGTA, 1 mM EDTA, 1% NP40, 5 μg/ml leupeptin, 5 μg/ml aprotinin, 10 nM okadaic acid, and 1 mM PMSF. Immunoprecipitations and immunoblotting experiments were performed with […] and 75 ug total protein, respectively.

The test system of experiment [1] is IRE-1α+/+ (WT) fibroblasts. Nature of the experiment: ER stress-induced JNK activation and IRS-1 phosphorylation in wild type fibroblasts. In kind it is cell-based, mouse. To be noted: tunicamycin 10 μg/ml for 1 hour. How it is done: as §1
Cells: FaO cells were cultured with RPMI 1640 (Gibco) containing 10% fetal bovine serum (FBS). At 70-80% confluency, cells were serum depleted for 12 hours before starting the experiments. Reagents including tunicamycin, thapsigargin, and JNK inhibitors were gently added to the culture dishes in the incubator to prevent any environmental stress. […]

The next experiment has as its system IRE-1α−/− fibroblasts. Nature of the experiment: ER stress-induced JNK activation and IRS-1 phosphorylation in IRE-1α-deficient fibroblasts. The format is cell-based, mouse. To be noted: tunicamycin 10 μg/ml for 1 hour. How it is done:
FIG. 2 depicts that the induction of ER stress impairs insulin action through JNK mediated phosphorylation of IRS-1. (A) ER stress was induced in Fao liver cells by a 3-hour treatment with 5 μg/ml tunicamycin (Tun). Cells were subsequently stimulated with insulin (Ins). IRS-1 tyrosine and serine (Ser307) phosphorylation, Akt phosphorylation (Ser473), insulin receptor (IR) tyrosine phosphorylation, and their total protein levels were examined using either immunoprecipitation (IP) followed by immunoblotting (IB) or direct immunoblotting. (B) Quantitation of IRS-1 (tyrosine and Ser307), Akt (Ser473), and IR (tyrosine) phosphorylation under the experimental conditions described in (A) with normalization to protein levels for each molecule. (C) Inhibition of ER stress-induced (300 nM thapsigargin for 4 hours) Ser307 phosphorylation of IRS-1 by JNK-1 inhibitor, SP600125 (JNKi, 25 μM). (D) Quantitation of IRS-1 Ser307 phosphorylation under conditions described in (C). (E) Reversal of ER stress-induced inhibition of insulin-stimulated tyrosine phosphorylation (pY) of IRS-1 by a JNK inhibitor. (F) Quantitation of insulin-induced IRS-1 tyrosine phosphorylation levels described in (E). (G) JNK activity, Ser307 phosphorylation of IRS-1, and total IRS-1 levels at indicated times following tunicamycin treatment (Tun, 10 μg/ml for I hour) in IRE-1α^+/+ and IRE-1α^−/− fibroblasts. […]

Experiment [2] concerns mouse embryonic fibroblasts (MEF) without exogenous XBP-1s expression. Nature of the experiment: ER stress response in MEF-tet-off fibroblasts without exogenous XBP-1s expression. In kind it is cell-based. To be noted: tunicamycin 2 μg/ml, fibroblasts without exogenous XBP-1s (+Dox). The text has this:
FIG. 3 depicts that alteration of the ER stress response by manipulation of XBP-1 levels leads to alterations in insulin receptor signaling. ER stress responses in XBP-1s overexpressing cells, XBP-1^−/− cells, and their controls. (A) Induction of XBP-1s expression upon removal of doxycycline in mouse embryonic fibroblasts (MEF). (B) Southern blot analysis of XBP-1^−/− MEF cells and their WT controls for the wild type (9.4 kb) and targeted (6.5 kb) alleles. (C) PERK phosphorylation (p-PERK) and JNK activity in the XBP-1s overexpressing cells and their control cells (−Dox and +Dox, respectively) upon tunicamycin treatment (Tun, 2 μg/ml). (D) PERK phosphorylation and JNK activity upon low dose tunicamycin treatment (Tun, 0.5 μg/ml) in XBP-1^−/−-MEF cells and their WT controls. (E) IRS-1 Ser307 phosphorylation upon tunicamycin treatment (Tun, 2 μg/ml) in the XBP-1s overexpressingcells and the control cells (−Dox and +Dox, respectively), detected using immunoprecipitation (IP) of IRS-1 followed by immunoblotting (IB) with an IRS-1 phosphoserine 307-specific antibody. […] The ratio of IRS-1 tyrosine phosphorylation to total IRS-1 level was summarized from independent experiments and was presented in the graph. (G) IRS-1 Ser307 phosphorylation upon tunicamycin treatment (Tun, 0.5 μg/ml) in XBP-1^−/− cells and WT controls was detected as described in panel C. […] The ratio of IRS-1 tyrosine phosphorylation to total IRS-1 level was summarized from independent experiments and presented in the graph. All graphs show mean±SEM from at least 2 independent experiments and statistically significance from the controls is indicated by * with p<0.005.
Overexpression of XBPIs in MEFs: MEF-tet-off cells (Clontech) were cultured in DMEM with 100 μg/ml G418 and 1 μg/ml doxycycline. The MEF-tet-off cells express exogenous tTA (tetracycline-controlled transactivator) protein, which binds to TRE (tetracycline response element) and activates transcription only in the absence of tetracycline or doxycycline. The cDNA of the spliced form of XBP-1 was ligated into pTRE2hyg2 plasmid (Clontech). The MEF-tet-off cells were transfected with the TRE2hyg2-XBP-1s plasmid, followed by selection in the presence of […] hygromycine B. Individual clones of stable transfectants were isolated and doxycycline-dependent XBP-1s expression was confirmed by immunoblotting.
Protein Extracts From Cells: At the end of each treatment, cells were immediately frozen in liquid nitrogen and kept at −80° C. Protein extracts were prepared with a lysis buffer, containing 25 mM Tris-HCl (pH7.4), 2 mM Na3VO4, 10 mM NaF, 10 mM Na4P2O7, 1 mM EGTA, 1 mM EDTA, 1% NP40, 5 μg/ml leupeptin, 5 μg/ml aprotinin, 10 nM okadaic acid, and 1 mM PMSF. […]

For another experiment, the system named is WT MEF cells. Kind of experiment: ER stress response to low dose tunicamycin in WT MEF cells. In kind it is cell-based, mouse. To be noted: low dose of tunicamycin 0.5 μg/ml. The text has this:
(§2) FIG. 3 depicts that alteration of the ER stress response by manipulation of XBP-1 levels leads to alterations in insulin receptor signaling. ER stress responses in XBP-1s overexpressing cells, XBP-1^−/− cells, and their controls. (A) Induction of XBP-1s expression upon removal of doxycycline in mouse embryonic fibroblasts (MEF). (B) Southern blot analysis of XBP-1^−/− MEF cells and their WT controls for the wild type (9.4 kb) and targeted (6.5 kb) alleles. (C) PERK phosphorylation (p-PERK) and JNK activity in the XBP-1s overexpressing cells and their control cells (−Dox and +Dox, respectively) upon tunicamycin treatment (Tun, 2 μg/ml). (D) PERK phosphorylation and JNK activity upon low dose tunicamycin treatment (Tun, 0.5 μg/ml) in XBP-1^−/−-MEF cells and their WT controls. (E) IRS-1 Ser307 phosphorylation upon tunicamycin treatment (Tun, 2 μg/ml) in the XBP-1s overexpressingcells and the control cells (−Dox and +Dox, respectively), detected using immunoprecipitation (IP) of IRS-1 followed by immunoblotting (IB) with an IRS-1 phosphoserine 307-specific antibody. […] The ratio of IRS-1 tyrosine phosphorylation to total IRS-1 level was summarized from independent experiments and was presented in the graph. (G) IRS-1 Ser307 phosphorylation upon tunicamycin treatment (Tun, 0.5 μg/ml) in XBP-1^−/− cells and WT controls was detected as described in panel C. […]

Another experiment deals with XBP-1−/− MEF cells. Kind of experiment: ER stress response to low dose tunicamycin in XBP-1−/− MEF cells. The format is cell-based, mouse.
Description: as §2

In the case of `CSc1ccc(/C=C2/C(C)=C(CC(=O)O)c3cc(F)ccc32)cc1` [sulindac sulfide], the “thapsigargin-induced IRS-1 serine phosphorylation” value in the experiment on Fao liver cells (sulindac sulfide 45 minutes, then additional hour of 300 nM thapsigargin) is on record as “did not interfere”. The “Ser307 phosphorylation of IRS-1” value with Fao liver cells (sulindac sulfide alone (0, 7.5, 30, 60 μM, 45 minutes)) is “no effect”.

With tunicamycin, the “insulin-stimulated tyrosine phosphorylation of IRS-1” value in the experiment on Fao liver cells (Fao cells pretreated with ER stress inducer (tunicamycin 5 μg/ml 3 h; thapsigargin 300 nM 1 h), then insulin) is “significantly decreased”. The “serine (Ser307) phosphorylation of IRS-1” value in the experiment with Fao liver cells was “significant increase”. Besides, the “insulin-induced Akt phosphorylation (Ser473)” value in the experiment with Fao liver cells (Fao cells, tunicamycin pretreatment 5 μg/ml 3 h, then insulin) was “suppressed”. Besides, in experiment [1] (WT cells, then insulin), the “insulin-stimulated tyrosine phosphorylation of IRS-1” value is on record as “inhibited”. In experiment [1] (WT fibroblasts), the JNK activation result is “strong activation” and the “phosphorylation of IRS-1 at Ser307” value was “stimulated”. Besides, the “insulin-stimulated tyrosine phosphorylation of IRS-1” value with IRE-1α−/− fibroblasts (IRE-1α−/− cells, then insulin) was “no such effect was detected”. For the same compound, the “phosphorylation of IRS-1 at Ser307” value in the experiment with IRE-1α−/− fibroblasts (IRE-1α−/− fibroblasts) is reported as “not”. Further, in experiment [2], the JNK activation entry is “rapid and robust activation”; the PERK phosphorylation result is given as “strong”; the “peak of PERK phosphorylation” value was 3 to 4 h; the “start of PERK phosphorylation” value was determined as 30 min. Besides, in the experiment with WT MEF cells, the “ER stress (PERK phosphorylation, JNK activation)” value is reported as “failed to stimulate significant ER stress”. The “ER stress response (PERK phosphorylation, JNK activation)” value in the experiment with XBP-1−/− MEF cells (low dose of tunicamycin 0.5 μg/ml, XBP-1−/− MEFs) is on record as “strong ER stress response”. Moreover, in the experiment on XBP-1−/− MEF cells (tunicamycin 0.5 μg/ml, XBP-1−/− MEFs compared with XBP-1+/+ controls), the “IRS-1 serine (Ser307) phosphorylation” value is given as “strongly induced”.

Regarding `C/C=C(/C)C(=O)O[C@H]1C(C)=C2[C@H]([C@@H]1OC(=O)CCCCCCC)[C@@](C)(OC(C)=O)C[C@H](OC(=O)CCC)[C@@]1(O)[C@H]2OC(=O)[C@@]1(C)O` [thapsigargin], in the experiment with Fao liver cells, the “serine (Ser307) phosphorylation of IRS-1” value was “increased”. In the experiment with Fao liver cells (Fao cells, thapsigargin 300 nM 1 h, then insulin), the insulin receptor signaling result is on record as “suppressed”.
